Results from patent US20190029987A1, “DIMETHYL FUMARATE (DMF) FOR PREVENTION OR TREATMENT OF GOUT, ACNE, DIABETES, VITILIGO AND/OR PYODERMA GANGRENOSUM” (UNIVERSITAT ZURICH, priority 2016, published 2019).

Legend:
[1] = target: T1, NLRP3 inflammasome (Homo sapiens, UniProt Q96P20); assay: Inflammasome activation by nigericin/MSU in differentiated, primed THP-1 cells (IL-1β ELISA, Western blot); format: cell-based; settings: for accumulation of mature IL-1β in the cells (lysate): THP-1, 10 μM 30 min before nigericin, 2.5 h, FIG. 8D; for IL-1β secretion: THP-1, 10 μM 1 h before 5 μM nigericin or 150 μg/ml MSU, 5 h, FIG. 2B
T1 construct: endogenous in cells
Text: (§1) To determine the effects of Nrf2 activating compounds on inflammasome activation, the inventors treated keratinocytes with different doses of SFN, tBHQ, DMF or 15d-PGJ2 and irradiated the cells with UVB.
(§2) SFN, DMF, 15d-PGJ2, tBHQ, zymosan, ATP, poly(dA:dT), cycloheximide, puromycin, and doxycycline were purchased from Sigma (Munich, Germany), nigericin from Enzo Life Sciences (New York, US-NY), MG132 from Calbiochem (Darmstadt, Germany), and blasticidin from Invivogen (Toulouse, France). Release of IL-1p was determined by ELISA according the instructions of the manufacturer (R&D Systems, Minneapolis, US-MN). MSU crystals were prepared by crystallisation of a supersaturated solution of uric acid under mildly basic conditions. Briefly, uric acid was added to a solution of NaOH, the solution was boiled until the uric acid was dissolved and passed through a filter. NaCl was added and crystallisation was performed at 4° C. Crystals were filtered, then dried using a speedvac, weighted and autoclaved.
(§3) (A) HPKs were treated with the indicated concentrations of the Nrf2 activating compound tBHQ irradiated with UVB 30 min later and harvested after 5 h. ELISA measurements were performed for quantification of IL-1β secretion and Western blots for analysis of expression and activation of the indicated proteins. Specific bands are marked with an asterisk. (B) THP-1 cells were differentiated with PMA (27 nM) for 3 d, primed with upLPS (100 ng/ml) overnight, and 1 h before inflammasome activation (5 μM nigericin, 150 μg/ml MSU) treated with SFN (10 μM), 15-PGJ2 (10 μM) or DMF (50 μM) (15-PG: 15-PGJ2). Cells and supernatants were harvested after 5 h and analysed for inflammasome activation by ELISA measurement of IL-1p and Western blots as indicated. (C) Freshly isolated PBMCs from human blood were primed overnight with upLPS (100 ng/ml) and treated with SFN (10 μM), tBHQ (10 μM), DMF (50 μM) or 15-PGJ2 (10 μM) 1 h before inflammasome activation by nigericin (5 μM). ELISA measurement for secretion of IL-1β as readout for inflammasome activation was performed after 5 h. (D) HPKs or (E) differentiated and primed THP-1 cells were pretreated with cycloheximide (CHX, 30 μg/ml) to block protein synthesis for 1 h before SFN (10 μM) was added to the cells and after an additional hour the inflammasome was activated by (D) irradiation with UVB or (E) treatment with nigericin (5 μM). Cells and supernatants were harvested after (D) 6 h or (E) 3.5 h and analysed for inflammasome activation by Western blot as indicated. (A-E) Representative experiments performed at least three times are shown. Statistics: (A-C) Error bars represent the mean±SD of a representative experiment performed in triplicates. One-way ANOVA was performed. **P≤0.01; ***P≤0.001.
(A-C) HPKs were irradiated with (A) UVB or treated with (B) nigericin (5 μM) and cells and supernatants were harvested at different time points as indicated. Western blots for expression and activation of the indicated proteins. Specific bands are marked with an asterisk. (C) Expression of Nrf2 and Nrf2 target genes was determined by qRT-PCR. (D, E) THP-1 cells were differentiated with PMA (27 nM) for 3 d, primed with upLPS (100 ng/ml) overnight and treated with nigericin (5 μM) or MSU (150 μg/ml). Cells and supernatants were harvested at different time points as indicated and analysed for (D) expression and activation of the proteins as indicated by Western blot and (E) expression of Nrf2 and Nrf2 target genes by qRT-PCR. (F) HPKs were transfected with specific siRNAs as indicated (scr: scrambled, c1: caspase-1, K1; Keap1), 2 d later irradiated with UVB or treated with nigericin (5 μM). Cells were harvested after 1 h or 5 h, and lysates were analysed for the expression of the indicated proteins by Western blot.

[2] = target: T1, NLRP3 inflammasome; assay: Nigericin-induced IL-1β secretion in human PBMCs (ELISA); format: cell-based; settings: 10 μM 1 h before nigericin (5 μM), 5 h, FIG. 2C
Text: as §1, §2, §3

[3] = test system: THP-1 cells; assay: Pyroptosis in inflammasome activated THP-1 cells (LDH release); format: cell-based, human; settings: THP-1, 10 μM 30 min before nigericin, 2.5 h, FIG. 8D
Experimental: To determine the effects of Nrf2 activating compounds on inflammasome activation, the inventors treated keratinocytes with different doses of SFN, tBHQ, DMF or 15d-PGJ2 and irradiated the cells with UVB. […] As the Nrf2 activators were added to the cells only 15 to 30 min prior to inflammasome activation, it is unlikely that Nrf2 target genes are involved in inflammasome inhibition.
Supernatants were harvested and after centrifugation (400×g) used for analysis. Cells were lysed in culture medium with 2% Triton X-100 for 10 min, LDH activity was determined according to the manufacturer (Cytotox 96 nonradioactive cytotoxicity assay, Promega, Madison, US-WC).
FIG. 8: (A-C) HPKs were treated with the Nrf2 activating compounds (A) SFN, (B) DMF, and (C) 15d-PGJ2, irradiated with UVB 30 min later and harvested after 5 h. Analogous experiment as described in FIG. 2A for tBHQ. (D) THP-1 cells were differentiated with TPA for 3 d and primed with LPS overnight. Then, cells were treated with the solvent DMSO, SFN (10 μM) or 15-PGJ2 (10 μM). After 30 min the inflammasome was activated by nigericin treatment and cells and supernatants were harvested after 2.5 h. Western blots showing prolL-1β and mature IL-1p in the lysate and supernatant. […] IL-1β was quantified in the supernatant by ELISA and cytotoxicity by LDH release.

T1 sequence (Q96P20 whole entry): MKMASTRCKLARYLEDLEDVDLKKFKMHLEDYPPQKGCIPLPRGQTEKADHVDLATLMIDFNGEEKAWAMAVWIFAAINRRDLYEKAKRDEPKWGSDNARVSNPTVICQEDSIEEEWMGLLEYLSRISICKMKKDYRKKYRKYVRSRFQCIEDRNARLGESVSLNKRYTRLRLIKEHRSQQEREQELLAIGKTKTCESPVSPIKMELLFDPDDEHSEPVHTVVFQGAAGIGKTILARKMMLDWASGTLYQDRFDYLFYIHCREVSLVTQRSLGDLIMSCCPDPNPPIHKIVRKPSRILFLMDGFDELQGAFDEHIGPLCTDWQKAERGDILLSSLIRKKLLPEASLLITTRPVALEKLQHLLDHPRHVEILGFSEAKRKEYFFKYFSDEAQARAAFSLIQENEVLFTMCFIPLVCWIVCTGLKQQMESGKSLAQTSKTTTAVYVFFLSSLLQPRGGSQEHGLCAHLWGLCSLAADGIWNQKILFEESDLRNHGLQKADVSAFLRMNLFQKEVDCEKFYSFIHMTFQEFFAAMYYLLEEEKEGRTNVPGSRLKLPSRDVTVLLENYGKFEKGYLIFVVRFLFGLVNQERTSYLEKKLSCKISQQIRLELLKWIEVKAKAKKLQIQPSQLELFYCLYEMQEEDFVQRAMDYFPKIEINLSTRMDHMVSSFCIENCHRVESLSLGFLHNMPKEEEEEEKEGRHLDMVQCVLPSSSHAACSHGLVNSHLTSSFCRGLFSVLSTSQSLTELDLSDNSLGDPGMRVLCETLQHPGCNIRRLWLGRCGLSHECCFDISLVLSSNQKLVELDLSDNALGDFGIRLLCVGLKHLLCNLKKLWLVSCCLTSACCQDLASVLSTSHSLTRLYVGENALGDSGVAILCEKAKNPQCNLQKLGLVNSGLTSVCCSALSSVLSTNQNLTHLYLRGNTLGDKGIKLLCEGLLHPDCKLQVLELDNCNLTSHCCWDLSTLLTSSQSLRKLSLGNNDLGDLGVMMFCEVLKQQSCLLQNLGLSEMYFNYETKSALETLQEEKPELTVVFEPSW

CCCCCC=CC=C1C(=O)C=CC1CC=CCCCC(=O)O [15d-PGJ2, 15-deoxy-D-prostaglandin J2]
accumulation of mature IL-1β in the cells (lysate) [1]: mature IL-1β did not accumulate | IL-1β secretion [1]: inhibited IL-1β secretion | IL-1β secretion [2]: inhibited IL-1β secretion | pyroptosis (release of lactate dehydrogenase) [3]: strongly inhibited pyroptosis

C[S+]([O-])CCCCN=C=S (stereo not shown) [SFN, sulforaphane]
accumulation of mature IL-1β in the cells (lysate) [1]: mature IL-1β did not accumulate | IL-1β secretion [1]: inhibited IL-1β secretion | inflammasome inhibition by SFN with protein synthesis blocked by cycloheximide ([1]; THP-1, CHX 30 μg/ml 1 h before SFN 10 μM, nigericin 5 μM 1 h later, 3.5 h, FIG. 2E): did not prevent inflammasome inhibition | dependence of inflammasome inhibition on Keap1 ([1]; THP-1 cells with knockout of Keap1, 10 μM pretreatment, nigericin 5 μM, 3.5 h, FIG. 4H): Keap1 independent | IL-1β secretion [2]: inhibited IL-1β secretion | pyroptosis (release of lactate dehydrogenase) [3]: strongly inhibited pyroptosis
